Experiments:
[1] = target: T1, CYP2D6 (Homo sapiens, UniProt P10635); test: IC50 assessment using recombinant human CYPs (probe dextromethorphan); assay type: in vitro ADME; conditions: recombinant CYP 0.025 μM, dextromethorphan 0.05 mg mL^−1, 37 °C, 30 min, n = 3; read-out: IC50 against CYP2D6
T1 construct: purchased IPHASE
Procedure: (§1) Figure 12 The inhibition curves for TNBG-5602 against cytochrome enzymes (mean ± SD, n = 3). TNBG-5602 (final concentrations of 0, 0.01, 0.1, 1.0, 10.0, and 100 μM) was incubated with recombinant cytochrome P450s (final concentration 0.025 μM) and the specific probe substates (final concentration 0.05 mg mL^−1) with NADPH to initiate the metabolic reaction. The incubations were carried out at 37 °C for 30 min with a total volume of 200 μL. The CYP isoforms tested were 2D6 (dextromethorphan), 2C9 (tolbutamide), and 3A4 (testosterone). […] The IC50 values were calculated using the GraphPad Prism statistical software (Version 8) by nonlinear regression analysis.
(§2) The LC-MS/MS instrument was the same as the system used to determine TNBG-5602. The mobile phase consisted of 0.1% formic acid, aqueous solution (Solvent A), and acetonitrile (Solvent B) at a flow rate of 0.3 mL min^−1. […]
(§3) For IC50 assessment, the inhibition curves were established by nonlinear regression analysis plotting the relative activity (y) versus the logarithm of the TNBG-5602 concentration (x). The inhibition curve and the half-maximal inhibitory concentration of TNBG-5602 against each CYP isoform were analyzed using the GraphPad Prism statistical software (version 8). […]

[2] = target: T2, CYP2C9 (Homo sapiens, UniProt P11712); test: IC50 assessment using recombinant human CYPs (probe tolbutamide); assay type: in vitro ADME; conditions: recombinant CYP 0.025 μM, tolbutamide 0.05 mg mL^−1, 37 °C, 30 min, n = 3; read-out: IC50 against CYP2C9
T2 construct: purchased IPHASE
Procedure: as §1, §2, §3

[3] = Pharmacokinetics in rats after a single intravenous administration
Procedure: Sample separation was carried out on a CSH C18 Column (3.0 × 75 mm, 1.7 μm). The mobile phase consisted of Eluent A (0.1% aqueous formic acid) and Eluent B (acetonitrile: methanol, 80:20, v/v) at a flow rate of 0.4 mL min^−1. […] The column temperature was set to 35 °C. The injection volume was 5 μL. The optimized spectrometric parameters were set as follows: a capillary voltage of 4 kV, gas temperature of 300 °C, gas flow rate of 5 L min^−1, nebulizer of 45 Psi, sheath gas temperature of 250 °C, and sheath gas flow rate of 10 L min^−1. The UPLC-MS/MS data were acquired and processed using the Mass Hunter MS Optimizer software (version B.07.00). Detection was performed under multiple reaction monitoring (MRM) mode with the positive-ion electrospray-ionization (ESI) mode.
For the pharmacokinetic analyses, five rats were administered at a dose of 4.8 mg kg^−1 body weight via the caudal vein.
The whole blood samples were immediately centrifuged at 13,000 rpm for 5 min upon collection, and the supernatants were stored at −80 °C until analysis.
Obtained plasma (50 μL) was thawed and spiked with 50 μL of the IS working solution (50 ng mL^−1). The mixture was deproteinized and extracted using 1 mL of acetonitrile by using a vortex for 2 min.

[4] = test system: cancer cells and tissues; parameters: method as in PMID 31446646; conditions: oil red O staining; cited from earlier work
[5] = rats, i.v. 4.8 mg kg^−1, non-compartment model, mean, n = 5
[6] = rats, i.v. 4.8 mg kg^−1, two-compartment model, mean, n = 5

T2 sequence (P11712 whole entry): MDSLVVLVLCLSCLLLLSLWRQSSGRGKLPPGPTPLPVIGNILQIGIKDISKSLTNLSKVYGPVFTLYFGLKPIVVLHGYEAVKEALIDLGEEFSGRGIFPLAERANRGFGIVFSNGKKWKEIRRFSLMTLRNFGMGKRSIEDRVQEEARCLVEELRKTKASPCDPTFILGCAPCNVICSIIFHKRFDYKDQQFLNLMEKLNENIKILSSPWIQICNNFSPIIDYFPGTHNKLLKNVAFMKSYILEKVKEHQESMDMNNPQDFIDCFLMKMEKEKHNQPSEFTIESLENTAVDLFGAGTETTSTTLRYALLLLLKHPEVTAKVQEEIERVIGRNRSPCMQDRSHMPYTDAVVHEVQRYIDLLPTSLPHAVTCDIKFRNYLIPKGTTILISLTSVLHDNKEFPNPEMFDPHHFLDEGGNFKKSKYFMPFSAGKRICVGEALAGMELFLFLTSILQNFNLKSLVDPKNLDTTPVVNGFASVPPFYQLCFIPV
T1 sequence (P10635 whole entry): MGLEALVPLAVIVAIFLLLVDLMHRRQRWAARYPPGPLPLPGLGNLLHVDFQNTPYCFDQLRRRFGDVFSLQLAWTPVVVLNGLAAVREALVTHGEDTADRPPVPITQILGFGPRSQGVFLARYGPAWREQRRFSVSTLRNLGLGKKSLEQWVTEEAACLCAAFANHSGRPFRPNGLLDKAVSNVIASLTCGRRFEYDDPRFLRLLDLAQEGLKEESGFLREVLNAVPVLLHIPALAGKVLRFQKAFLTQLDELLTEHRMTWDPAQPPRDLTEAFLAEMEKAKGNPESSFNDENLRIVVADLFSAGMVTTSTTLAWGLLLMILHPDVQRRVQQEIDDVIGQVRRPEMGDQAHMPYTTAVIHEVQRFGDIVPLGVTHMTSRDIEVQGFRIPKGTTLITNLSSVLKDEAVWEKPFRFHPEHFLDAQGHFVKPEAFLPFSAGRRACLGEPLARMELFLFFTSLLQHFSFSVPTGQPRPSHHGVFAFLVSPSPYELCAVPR

## CN(C)CCN1CC2c3ccccc3CCN2c2nc3ccccc3nc21 (stereo not shown) [TNBG-5602]
[1]
  IC50: 2.52 µM
[2]
  IC50: 9.63 µM
[3]; rat, in vivo, iv, 4.8 mg/kg
  k el: 6.67e-05 s⁻¹
[3]; rat, plasma, iv, 4.8 mg kg^−1, half-life, rats
  half-life: ~12 h
[3]; rat, plasma, iv, 4.8 mg/kg
  Cmax: 171 ng/mL
  MRT inf: 15.5 h
  MRT last: 7.13 h
  Vd: 20.2 L
[3]; rat, plasma, iv, 4.8 mg/kg, CL (clearance), rats, i.v. 4.8 mg kg^−1, two-compartment model, mean, n = 5
  clearance: 22 mL/min
[3]; rat, plasma, iv, 4.8 mg/kg, CLt (total body clearance), rats, i.v. 4.8 mg kg^−1, non-compartment model, mean, n = 5
  clearance: 19 mL/min
[3]; rat, plasma, iv, 4.8 mg/kg, Tmax, rats, i.v. 4.8 mg kg^−1, non-compartment model, mean, n = 5
  Tmax: ≤ 5 min
[3]; rat, plasma, iv, 4.8 mg/kg, t1/2, rats, i.v. 4.8 mg kg^−1, non-compartment model, mean, n = 5
  half-life: 11.6 h
[3]; rat, plasma, iv, 4.8 mg/kg, t1/2β (elimination half-life), rats, i.v. 4.8 mg kg^−1, two-compartment model, mean, n = 5
  half-life: 11.8 h
[3]; [5]
  AUC(0–t): 45513 µg·min/L
  AUC(0–∞): 56248 µg·min/L
  t1/2: 11.56 h
[3]; [6]
  A (zero-time intercept of the α distribution phase): 127.2 µg/L
  B (zero-time intercept of the elimination phase): 57.6 µg/L
  K12 (transfer rate constant central to peripheral compartment): 0.028 min⁻¹
  K21 (transfer rate constant peripheral to central compartment): 0.019 min⁻¹
  Vc (apparent volume of the central compartment): 6.985 L
  Vp (apparent volume of the peripheral compartment): 13.2 L
  t1/2α: 0.457 h
[3]; rats, i.v., two-compartment model
  distribution volume of the peripheral compartment relative to the central compartment: 1.88 fold
[3]; rats, i.v., liver blood flow ref 19
  in vivo clearance as % liver blood flow in rats: 200%
[3]; rats, i.v., total body water ref 19
  apparent volume of distribution relative to total body water in rats: approximately 155 fold
[3]; rats, single i.v. administration
  apparent clearance rate from the central compartment to the peripheral compartment: 0.028 ± 0.033 L/min
[4]
  lipid accumulation in cancer cells and tissues: selectively cause lipid accumulation
